What all share (experiment): inhibition of tumour cell growth, NCI panel, 48 h
The subject of test [1] is A498 renal.
Test [2] concerns EKVX NSCLC.
Test [3] concerns HOP-62 NSCLC.
The test system of test [4] is HS 578T breast.
Test [5] relates to IGROV1 ovarian.
The test system of test [6] is MDA-MB-231 breast.
Test [7] has as its system OVCAR-5 ovarian.
The subject of test [8] is SF-539 CNS.
The subject of test [9] is T-47D breast.
Test [10] has as its system UACC-62 melanoma.

From PubChem BioAssay (NCI) come the findings set out here.

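Each compound was tested at five concentrations against cells in 96-well plates for 48 hours. GI50: concentration for 50% inhibition of growth. TGI: total growth inhibition.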

Consider `Cc1nn(CN2CCN(C)CC2)c(=S)n1/N=C/c1cccc2ccccc12`, for which the GI50 in test [1] was 16.7 µM; in [2] it was 31.8 µM; in test [3], 20 µM; in test [4] it was 26.8 µM; in test [5], 19.4 µM; in test [6] it was 19.3 µM. The GI50 was 19.6 µM in [7], 18.3 µM in [8], 17.6 µM in [9] and 17.5 µM in [10]. Also, the TGI in test [1] was 34.7 µM; in [2], over 100 µM; in [3], 42.3 µM; in test [4], 74.8 µM; in test [5] it was 55.1 µM; in test [6] it was 44.4 µM. In addition, the TGI amounted to 40.4 µM in test [7], 34.7 µM in test [8], 48.2 µM in test [9] and 33.9 µM in [10].
Consider `COc1cc(OC)cc(-c2ccc(-c3ccc(C(=N)N)o3)o2)c1`, for which the GI50 in [1] is 2.89 µM; in [2] it was 5.09 µM; in test [3], 5.65 µM; in [4], 8.12 µM; in test [5] it was 2.97 µM; in test [6] it was 2.35 µM. In addition, the GI50 in [7] was 2.34 µM; in [8] it was 1.83 µM; in test [9], 2.08 µM; in [10], 1.96 µM. Also, the TGI in [1] is 15.3 µM; in test [2], 18.5 µM; in test [3] it was 19.1 µM; in test [4] it was 27.3 µM; in [5], 10.4 µM; in [6], 4.78 µM. Also, the TGI in test [7] is 5.25 µM; in [8] it was 3.44 µM; in test [9], 5.04 µM; in test [10] it was 3.98 µM.
Turning to `Cc1ccc(CS/C(=C\c2ccc([N+](=O)[O-])cc2)C(=O)c2ccc(F)cc2)cc1`, the GI50 in [1] is 15.6 µM; in [2], 4.72 µM; in test [3] it was 11.5 µM; in test [4], 2.35 µM; in test [5] it was 4.49 µM; in test [6], 2.42 µM. Further, the GI50 was 2.6 µM in test [7], 3.22 µM in test [8], 4.53 µM in test [9] and 2.46 µM in test [10]. Also, the TGI is 36 µM in [1]; 24 µM in test [2]; 29.2 µM in test [3]; 6.34 µM in test [4]; 31.3 µM in test [5]; 6.08 µM in test [6]. Further, the TGI was 9.01 µM in [7], 10.8 µM in [8], 22.4 µM in test [9] and 8.77 µM in test [10].
On to `COC(=O)c1cc2c3ccccc3[nH]c2c2ncccc12`, for which the GI50 in [1] is over 100 µM; in [2] it was 11.5 µM; in test [3], 68.9 µM; in [4] it was 15.4 µM; in test [5], 2.09 µM; in test [6], 63.9 µM. Moreover, the GI50 is 32.3 µM in test [7], 17.4 µM in [8], 3.12 µM in [9] and over 100 µM in [10]. The TGI was over 100 µM in test [1]; over 100 µM in [2]; over 100 µM in [3]; 87 µM in test [4]; over 100 µM in [5]; over 100 µM in test [6]. In addition, the TGI in test [7], in [8], in test [9] and in test [10] was over 100 µM each time.
On to `COc1ccc(/C(=C2\O[C@@H]([C@H]3COC(C)(C)O3)[C@H]3OC(C)(C)O[C@@H]23)c2cc(OC)c(OC)c(OC)c2)cc1O`, for which the GI50 in [1] is 35.7 µM; in test [2], 55.7 µM; in test [3] it was 5.93 µM; in test [4], 2.83 µM; in test [5] it was 33.2 µM; in test [6] it was 4.58 µM. Also, the GI50 in [7] is over 100 µM; in test [8], 2.59 µM; in test [9] it was 25.1 µM; in test [10], 57.9 µM. The TGI in test [1] is over 100 µM; in test [2] it was over 100 µM; in [3], 25.5 µM; in test [4] it was 7.88 µM; in test [5] it was over 100 µM; in test [6] it was 30.7 µM. Also, the TGI in test [7] is over 100 µM; in [8], 6.63 µM; in test [9] it was over 100 µM; in test [10], over 100 µM.
Consider `O=C1CNCCCN2CCN(CCCNCC(=O)Nc3ccc(cc3)S(=O)(=O)c3ccc(cc3)NC(=O)CNCCCN3CCN(CCCNCC(=O)Nc4ccc(cc4)S(=O)(=O)c4ccc(cc4)N1)CC3)CC2`, for which the TGI in test [1] was 47.1 µM; in test [2], over 100 µM; in test [3], over 63.7 µM; in test [4], over 69.4 µM; in test [5] it was over 69.7 µM; in test [6], 52.1 µM. The TGI is over 77.2 µM in test [7], 44.6 µM in test [8], 97.2 µM in test [9] and over 67.5 µM in test [10].
Turning to `N#Cc1ccc(C#Cc2ccccc2C#CCCCCO)cc1`, the GI50 in test [1] is 13.8 µM; in test [2] it was 17.9 µM; in [3], 11.7 µM; in [4], 25.7 µM; in [5], 13.6 µM; in test [6] it was 16.7 µM. The GI50 in [7] was 15.1 µM; in test [8], 17.5 µM; in test [9], 13 µM; in test [10], 15 µM. The TGI in [1] came to 27.7 µM; in [2] it was 35.3 µM; in test [3], 24 µM; in [4], 64.2 µM; in test [5], 27.6 µM; in test [6] it was 31.3 µM. For the same compound, the TGI in test [7] was determined as 28.4 µM; in test [8] it was 32 µM; in test [9] it was 28 µM; in test [10], 28.4 µM.
In the case of `Cc1cc(N(CCOS(C)(=O)=O)CCOS(C)(=O)=O)ccc1C=Nc1ccc(-c2nc(Cc3ccccc3)sc2C)cc1`, the TGI in [1] came to 6.39 µM; in test [2] it was 15.8 µM; in test [3], 20.8 µM; in test [4], 34.6 µM; in test [5], 28 µM; in test [6], 26.9 µM. For the same compound, the TGI in [7] came out at 37.8 µM; in [8], 14.8 µM; in [9], 23.8 µM; in test [10], 16.7 µM.
